Assay results from BindingDB's records for patent US12466821 (Novartis, 2025).

molecular target: T1, DNA polymerase catalytic subunit (Human herpesvirus 1 (strain 17), UniProt P04293)
T1 sequence (P04293 whole entry): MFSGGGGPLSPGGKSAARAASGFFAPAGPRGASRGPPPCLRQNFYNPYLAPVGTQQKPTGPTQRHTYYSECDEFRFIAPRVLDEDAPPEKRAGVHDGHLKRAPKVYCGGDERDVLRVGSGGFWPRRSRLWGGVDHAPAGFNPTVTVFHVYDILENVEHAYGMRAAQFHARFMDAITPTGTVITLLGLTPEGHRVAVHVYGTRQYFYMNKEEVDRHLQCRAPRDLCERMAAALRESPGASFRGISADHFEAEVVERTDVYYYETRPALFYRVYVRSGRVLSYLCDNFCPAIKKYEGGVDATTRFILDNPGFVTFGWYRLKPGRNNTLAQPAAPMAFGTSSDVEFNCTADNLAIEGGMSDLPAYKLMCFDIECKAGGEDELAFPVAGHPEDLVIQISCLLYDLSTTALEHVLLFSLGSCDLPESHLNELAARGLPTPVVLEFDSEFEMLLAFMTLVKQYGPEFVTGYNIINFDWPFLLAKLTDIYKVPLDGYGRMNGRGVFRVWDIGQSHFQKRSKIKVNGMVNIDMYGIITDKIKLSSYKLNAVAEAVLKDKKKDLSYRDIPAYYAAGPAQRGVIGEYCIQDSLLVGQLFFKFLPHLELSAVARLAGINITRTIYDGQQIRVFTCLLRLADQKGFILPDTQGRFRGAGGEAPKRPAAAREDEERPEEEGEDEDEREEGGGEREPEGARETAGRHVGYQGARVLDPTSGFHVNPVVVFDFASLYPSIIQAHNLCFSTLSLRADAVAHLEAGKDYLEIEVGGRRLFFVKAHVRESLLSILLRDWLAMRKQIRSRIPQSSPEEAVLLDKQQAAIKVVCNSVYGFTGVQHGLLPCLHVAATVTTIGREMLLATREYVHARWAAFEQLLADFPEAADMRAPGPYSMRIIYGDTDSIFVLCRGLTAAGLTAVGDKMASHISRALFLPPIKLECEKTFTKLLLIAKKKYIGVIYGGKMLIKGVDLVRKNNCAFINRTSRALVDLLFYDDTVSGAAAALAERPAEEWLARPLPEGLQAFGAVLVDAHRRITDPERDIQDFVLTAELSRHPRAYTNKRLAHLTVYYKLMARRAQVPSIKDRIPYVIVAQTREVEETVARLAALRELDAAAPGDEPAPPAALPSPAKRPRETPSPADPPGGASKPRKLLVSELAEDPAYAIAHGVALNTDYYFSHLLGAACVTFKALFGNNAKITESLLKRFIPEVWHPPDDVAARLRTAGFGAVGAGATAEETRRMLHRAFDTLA

Row | SMILES | IC50 [nM]
1 | N#Cc1ccc(CNC(=O)c2ccc3n(c2=O)CCN(CC2(S(=O)(=O)CCCO)CC2)C3=O)cc1F [US12466821, Example 23] | 124
2 | CS(=O)(=O)CCN1CCn2c(ccc(C(=O)NCc3ccc(Cl)cc3)c2=O)C1=O [US12466821, Example 51] | 789
3 | CN(C)S(=O)(=O)C1(CN2CCn3c(ccc(C(=O)NCc4ccc(C#N)cc4)c3=O)C2=O)CC1 [US12466821, Example 90-2] | 19.8
4 | N#CCS(=O)(=O)C1(CN2CCn3c(ccc(C(=O)NCc4ccc(Cl)cc4)c3=O)C2=O)CC1 [US12466821, Example 108-1] | 116
5 | CS(=O)(=O)CCCN1CCn2c(c(C3CC3)cc(C(=O)NCc3ccc(Cl)cc3)c2=O)C1=O [US12466821, Example 130] | 2420
6 | O=C(NCc1ccc(Cl)cc1)c1cc(C2CC2)c2n(c1=O)CCN(CCN1CCCS1(=O)=O)C2=O [US12466821, Example 131] | 311
7 | O=C(NCc1ccc(Cl)cc1)c1cc(CC2CC2)c2n(c1=O)CCN(CCN1CCCS1(=O)=O)C2=O [US12466821, Example 133] | 324
8 | CCc1cc(C(=O)NCc2ccc(Cl)cc2)c(=O)n2c1C(=O)N(CCN1CCCS1(=O)=O)CC2 [US12466821, Example 135] | 342
9 | O=C(NCc1ccc(Cl)cc1)c1cc(C(F)F)c2n(c1=O)CCN(CCN1CCCS1(=O)=O)C2=O [US12466821, Example 144] | 1110
10 | CS(=O)(=O)CCCN1CCn2c(c(C(F)(F)F)cc(C(=O)NCc3ccc(Cl)cc3)c2=O)C1=O [US12466821, Example 146] | 14800
11 | Cc1cc(C(=O)NCc2ccc(Cl)cc2)c(=O)n2c1C(=O)N(CC1(N3CCCS3(=O)=O)CC1)CC2 [US12466821, Example 150] | 65.3
12 | Cc1cc(C(=O)NCc2ccc(Cl)cc2)c(=O)n2c1C(=O)N(CCC1(S(C)(=O)=O)CC1)CC2 [US12466821, Example 151] | 9250
13 | Cc1cc(C(=O)NCc2ccc(Cl)cc2)c(=O)n2c1C(=O)N(CC1(CS(C)(=O)=O)CC1)CC2 [US12466821, Example 154] | 283
14 | CN(CCN1CCn2c(c(F)cc(C(=O)NCc3ccc(Cl)cc3)c2=O)C1=O)S(C)(=O)=O [US12466821, Example 160] | 2020
15 | CS(=O)(=O)C1(CCN2CCn3c(c(F)cc(C(=O)NCc4ccc(Cl)cc4)c3=O)C2=O)CC1 [US12466821, Example 165] | 137000
16 | CS(=O)(=O)C1(CN2CCn3c(c(F)cc(C(=O)NCc4ccc(Cl)cc4)c3=O)C2=O)CC1 [US12466821, Example 167] | 71.8
17 | CS(=O)(=O)CC1(CN2CCn3c(c(F)cc(C(=O)NCc4ccc(Cl)cc4)c3=O)C2=O)CC1 [US12466821, Example 168] | 292
18 | CS(=O)(=O)C1(CCN2CCn3c(ccc(C(=O)NCc4ccc(Cl)cc4)c3=O)C2=O)CC1 [US12466821, Example 170] | 9350
19 | NC1(CN2CCn3c(ccc(C(=O)NCc4ccc(Cl)cc4)c3=O)C2=O)CC1 [US12466821, Example 197] | 3600
20 | CCOC(=O)C1(CN2CCn3c(ccc(C(=O)NCc4ccc(Cl)cc4)c3=O)C2=O)CC1 [US12466821, Example 207] | 2900
21 | O=C(NCc1ccc(Cl)cc1)c1ccc2n(c1=O)CCN(CC1(C(=O)N3CCC3)CC1)C2=O [US12466821, Example 208] | 4530
22 | CN(C)C(=O)C1(CN2CCn3c(ccc(C(=O)NCc4ccc(Cl)cc4)c3=O)C2=O)CC1 [US12466821, Example 209] | 1640
23 | O=C(NCc1ccc(Cl)cc1)c1ccc2n(c1=O)CCN(CC1(C(=O)N3CCOCC3)CC1)C2=O [US12466821, Example 211] | 4770
